What was measured:
[1] = tested on: HCT116 colon cancer cell line; test: Cytotoxicity in TTK-expressed HCT116 cells; type: cell-based; details: Homo sapiens, HCT-116, 120 h, 5 days
Description: To determine the cytotoxicity of a compound represented by Chemical Formula 1 according to the present invention to HCT116 cells, the following test was conducted.
HCT116 colon cancer cell line purchased from ATCC was inoculated into each well of a 96-well plate at a volume of 90 μL containing 2,000 cells. Thereafter, an example compound of the present invention was added to respective wells at concentrations of […], 3 μM, 1 μM, 0.3 μM, 0.1 μM, and 0 μM, and the cells were cultured in a cell incubator at 37° C. for 5 days. After 5 days, the number of cells was measured by CCK8 test method, and the cytotoxicity was determined by calculating the IC50 value for cytotoxicity of each compound.

[2] = tested on: MDA-MB-231 triple negative breast cancer cell line; test: Cytotoxicity in TTK-expressed MDA-MB-231 cells; type: cell-based; details: Homo sapiens, MDA-MB-231, 120 h, 5 days
Description: To determine the cytotoxicity of a compound represented by Chemical Formula 1 according to the present invention to MDA-MB-231 cells, the following test was conducted.
MDA-MB-231 triple negative breast cancer cell line purchased from ATCC was inoculated into each well of a 96-well plate at a volume of 90 μL containing 2,000 cells. Thereafter, an example compound of the present invention was added to respective wells at concentrations of 10 μM, 3 μM, 1 μM, 0.3 μM, 0.1 μM, and 0 μM, and the cells were cultured in a cell incubator at 37° C. for 5 days. Five days later, 10 μL of Cyto X solution (manufacturer: LPS Solution) was added to each of the wells, and the absorbance was measured at 450 nm using an Epoch microplate spectrophotometer (manufacturer: BioTek Instruments Inc.) according to the product's user guide. For cytotoxicity, the IC50 value for cytotoxicity of each compound was calculated by quantifying the number of cells using the measured value.

[3] = target: recombinant human TTK protein (Homo sapiens (Human), UniProt P33981); test: Evaluation of TTK activity inhibitory ability (scintillation counting); type: biochemical; details: TTK inhibitory activity; read-out: IC50;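 note: reaction stopped with 0.5% phosphoric acid, spotted on P30 filter, TTK activity counted by scintillation, uninhibited no-compound wells taken as 100% control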
Sequence of recombinant human TTK protein (P33981 whole entry): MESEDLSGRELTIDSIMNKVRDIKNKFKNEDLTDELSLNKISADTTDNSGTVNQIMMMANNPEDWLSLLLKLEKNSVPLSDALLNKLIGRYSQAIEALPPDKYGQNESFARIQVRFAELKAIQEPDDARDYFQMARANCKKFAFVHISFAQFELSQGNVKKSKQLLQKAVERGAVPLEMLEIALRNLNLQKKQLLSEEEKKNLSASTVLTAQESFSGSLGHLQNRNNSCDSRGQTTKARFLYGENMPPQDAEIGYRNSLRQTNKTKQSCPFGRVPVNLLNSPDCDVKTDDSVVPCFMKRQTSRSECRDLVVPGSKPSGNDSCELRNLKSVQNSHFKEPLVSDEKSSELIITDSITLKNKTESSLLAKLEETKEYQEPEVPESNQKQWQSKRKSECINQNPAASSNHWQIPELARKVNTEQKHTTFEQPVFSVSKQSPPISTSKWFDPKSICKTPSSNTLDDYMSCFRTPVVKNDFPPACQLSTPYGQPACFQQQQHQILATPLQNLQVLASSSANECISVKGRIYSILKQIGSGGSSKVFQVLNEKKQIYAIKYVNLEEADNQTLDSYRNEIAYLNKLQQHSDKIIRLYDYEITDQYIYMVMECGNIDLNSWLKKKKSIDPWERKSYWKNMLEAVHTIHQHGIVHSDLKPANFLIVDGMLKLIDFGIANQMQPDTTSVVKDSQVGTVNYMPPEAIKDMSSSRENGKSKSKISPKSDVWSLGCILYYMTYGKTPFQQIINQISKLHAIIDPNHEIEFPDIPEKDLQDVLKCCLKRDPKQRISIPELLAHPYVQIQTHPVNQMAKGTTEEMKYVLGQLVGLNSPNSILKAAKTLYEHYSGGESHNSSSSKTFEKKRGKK
Description: To determine the ability of a compound represented by Chemical Formula 1 according to the present invention to inhibit TTK activity, the following experiment was conducted.
After that, the reaction was terminated by adding phosphoric acid to a concentration of 0.5%, and 10 of the reaction solution was dropped onto a P30 filter. […] The activity of TTK was measured through scintillation counting. The activity value from the group with no compound was set as 100% of control, and the degree of TTK inhibition by the compound was calculated.

Compound	IC50 [1] [nM]	IC50 [2] [nM]	IC50 [3] [nM]
COc1cc(N2CCOCC2)ccc1Nc1nc(NC2CCOCC2)c2c(-c3cnco3)n[nH]c2n1 [Compound 33-1, N^6-(2-methoxy-4-morpholinophenyl)-3-(oxazol-5-yl)-N^4-(tetrahydro-2H-pyran-4-yl)-1H-pyrazolo[3,4-d]pyrimidine-4,6-diamine]	< 150	< 150	< 30
COc1cc(N2CCOCC2)ccc1Nc1nc(NC2CCCCC2)c2c(-c3cnoc3)n[nH]c2n1 [Compound 8-20, N^4-cyclohexyl-3-(isoxazol-4-yl)-N^6-(2-methoxy-4-morpholinophenyl)-1H-pyrazolo[3,4-d]pyrimidine-4,6-diamine]	< 150	< 150	< 30
COc1cc(N2CCOCC2)ccc1Nc1nc(NC2CCOCC2)c2c(-c3cccnc3)n[nH]c2n1 [Compound 8-27, N^6-(2-methoxy-4-morpholinophenyl)-3-(pyridin-3-yl)-N^4-(tetrahydro-2H-pyran-4-yl)-1H-pyrazolo[3,4-d]pyrimidine-4,6-diamine]	500 to 1000	500 to 1000	< 30
COc1cc(N2CCOCC2)ccc1Nc1nc(NC2CCCCC2)c2c(-c3cccc(NS(C)(=O)=O)c3)n[nH]c2n1 [Compound 8-6, N-(3-(4-(cyclohexylamino)-6-((2-methoxy-4-morpholinophenyl)amino)-1H-pyrazolo[3,4-d]pyrimidin-3-yl)phenyl)methanesulfonamide]	> 1000	> 1000	30 to 100
COc1cc(N2CCOCC2)ccc1Nc1nc(NC2CCCCC2)c2c(-c3nnco3)n[nH]c2n1 [Compound 14-2, N^4-cyclohexyl-N^6-(2-methoxy-4-morpholinophenyl)-3-(1,3,4-oxadiazol-2-yl)-1H-pyrazolo[3,4-d]pyrimidine-4,6-diamine]	150 to 500	150 to 500	30 to 100
CC(C)Oc1cc(N2CCOCC2)ccc1Nc1nc(NC2CCCCC2)c2c(-c3cnn(C)c3)n[nH]c2n1 [Compound 26-1, N^4-cyclohexyl-N^6-(2-isopropoxy-4-morpholinophenyl)-3-(1-methyl-1H-pyrazol-4-yl)-1H-pyrazolo[3,4-d]pyrimidine-4,6-diamine]	500 to 1000	150 to 500	30 to 100
CNC(=O)c1ccc(Nc2nc(NC3CCCCC3)c3c(-c4cnn(C)c4)n[nH]c3n2)c(OC)c1 [Compound 11-3, 4-((4-(cyclohexylamino)-3-(1-methyl-1H-pyrazol-4-yl)-1H-pyrazolo[3,4-d]pyrimidin-6-yl)amino)-3-methoxy-N-methylbenzamide]	150 to 500	< 150	< 30
COc1cc(N2CCOCC2)ccc1Nc1nc(NC2CCCCC2)c2c(-c3cccc(NC(=O)C4CC4)c3)n[nH]c2n1 [Compound 8-4, N-(3-(4-(cyclohexylamino)-6-((2-methoxy-4-morpholinophenyl)amino)-1H-pyrazolo[3,4-d]pyrimidin-3-yl)phenyl)cyclopropanecarboxamide]	> 1000	500 to 1000	
COc1cc(N2CCOCC2)ccc1Nc1nc(Nc2ccccc2)c2c(-c3cnn(C)c3)n[nH]c2n1 [Compound 26-2, N^6-(2-methoxy-4-morpholinophenyl)-3-(1-methyl-1H-pyrazol-4-yl)-N^4-phenyl-1H-pyrazolo[3,4-d]pyrimidine-4,6-diamine]	> 1000	> 1000	< 30
COc1cc(N2CCOCC2)ccc1Nc1nc(NC2CCOCC2)c2c(-c3cnn(C)c3)n[nH]c2n1 [Compound 8-23, N^6-(2-methoxy-4-morpholinophenyl)-3-(1-methyl-1H-pyrazol-4-yl)-N^4-(tetrahydro-2H-pyran-4-yl)-1H-pyrazolo[3,4-d]pyrimidine-4,6-diamine]	150 to 500	500 to 1000	< 30
COc1cc(N2CCOCC2)ccc1Nc1nc(NC2CCOCC2)c2c(-c3cn(C)nn3)n[nH]c2n1 [Compound 21-3, N^6-(2-methoxy-4-morpholinophenyl)-3-(1-methyl-1H-1,2,3-triazol-4-yl)-N^4-(tetrahydro-2H-pyran-4-yl)-1H-pyrazolo[3,4-d]pyrimidine-4,6-diamine]	< 150	150 to 500	30 to 100
COc1cc(N2CCOCC2)ccc1Nc1nc(NCC2CCCO2)c2c(-c3cnoc3)n[nH]c2n1 (stereo not shown) [Compound 8-35, 3-(Isoxazol-4-yl)-N^6-(2-methoxy-4-morpholinophenyl)-N^4-((tetrahydrofuran-2-yl)methyl)-1H-pyrazolo[3,4-d]pyrimidine-4,6-diamine]	> 1000	> 1000	< 30
COc1cc(N2CCOCC2)ccc1Nc1nc(NC2CCCCC2)c2c(-c3ccco3)n[nH]c2n1 [Compound 8-14, N^4-cyclohexyl-3-(furan-2-yl)-N^6-(2-methoxy-4-morpholinophenyl)-1H-pyrazolo[3,4-d]pyrimidine-4,6-diamine]	150 to 500	150 to 500	30 to 100
COc1cc(C(=O)N2CCOCC2)ccc1Nc1nc(NC2CCCCC2)c2c(-c3cnn(C)c3)n[nH]c2n1 [Compound 11-4, (4-((4-(cyclohexylamino)-3-(1-methyl-1H-pyrazol-4-yl)-1H-pyrazolo[3,4-d]pyrimidin-6-yl)amino)-3-methoxyphenyl)(morpholino)methanone]	150 to 500	150 to 500	< 30
COc1cc(N2CCOCC2)ccc1Nc1nc(NC2CCCCC2)c2c(-c3cnn(C)c3)n[nH]c2n1 [Compound 8-7, N^4-cyclohexyl-N^6-(2-methoxy-4-morpholinophenyl)-3-(1-methyl-1H-pyrazol-4-yl)-1H-pyrazolo[3,4-d]pyrimidine-4,6-diamine]	500 to 1000	150 to 500	100 to 300
COc1cc(N2CCOCC2)ccc1Nc1nc(NC2CCCCC2)c2c(-c3cnc[nH]3)n[nH]c2n1 [Compound 18-2, N^4-cyclohexyl-3-(1H-imidazol-5-yl)-N^6-(2-methoxy-4-morpholinophenyl)-1H-pyrazolo[3,4-d]pyrimidine-4,6-diamine]	500 to 1000	500 to 1000	30 to 100
COc1cc(N2CCOCC2)ccc1Nc1nc(NC2CCCCC2)c2c(-c3ccc4[nH]ncc4c3)n[nH]c2n1 [Compound 8-17, N^4-cyclohexyl-3-(1H-indazol-5-yl)-N^6-(2-methoxy-4-morpholinophenyl)-1H-pyrazolo[3,4-d]pyrimidine-4,6-diamine]	500 to 1000	500 to 1000	
COc1cc(-c2nncn2C)ccc1Nc1nc(NC2CCOCC2)c2c(-c3cnco3)n[nH]c2n1 [Compound 33-3, N^6-(2-methoxy-4-(4-methyl-4H-1,2,4-triazol-3-yl)phenyl)-3-(oxazol-5-yl)-N^4-(tetrahydro-2H-pyran-4-yl)-1H-pyrazolo[3,4-d]pyrimidine-4,6-diamine]	> 1000	500 to 1000	< 30
COc1cc(N2CCOCC2)ccc1Nc1nc(NC2CCCCC2)c2c(-c3cn(C)nn3)n[nH]c2n1 [Compound 21-2, N^4-cyclohexyl-N^6-(2-methoxy-4-morpholinophenyl)-3-(1-methyl-1H-1,2,3-triazol-4-yl)-1H-pyrazolo[3,4-d]pyrimidine-4,6-diamine]	< 150	< 150	< 30
COc1cc(N2CCOCC2)ccc1Nc1nc(NC2CCCCC2)c2c(-c3n[nH]c(=O)o3)n[nH]c2n1 [Compound 14-3, 5-(4-(cyclohexylamino)-6-((2-methoxy-4-morpholinophenyl)amino)-1H-pyrazolo[3,4-d]pyrimidin-3-yl)-1,3,4-oxadiazol-2(3H)-one]	< 150	150 to 500	30 to 100
COc1cc(N2CCOCC2)ccc1Nc1nc(NC2CCCCC2)c2c(-c3cccc(C(N)=O)c3)n[nH]c2n1 [Compound 8-2, 3-(4-(Cyclohexylamino)-6-((2-methoxy-4-morpholinophenyl)amino)-1H-pyrazolo[3,4-d]pyrimidin-3-yl)benzamide]	> 1000	> 1000	
Cn1cc(-c2n[nH]c3nc(NC4CCC(N5CCOCC5)CC4)nc(NC4CCCCC4)c23)cn1 (stereo not shown) [Compound 8-30, N^4-cyclohexyl-3-(1-methyl-1H-pyrazol-4-yl)-N^6-(4-morpholinocyclohexyl)-1H-pyrazolo[3,4-d]pyrimidine-4,6-diamine]		> 1000	100 to 300
CNC(=O)c1cccc(-c2n[nH]c3nc(Nc4ccc(N5CCOCC5)cc4OC)nc(NC4CCCCC4)c23)c1 [Compound 8-5, 3-(4-(cyclohexylamino)-6-((2-methoxy-4-morpholinophenyl)amino)-1H-pyrazolo[3,4-d]pyrimidin-3-yl)-N-methylbenzamide]	> 1000	> 1000	

— patent US20250145625A1, “PYRAZOLOPYRIMIDINE DERIVATIVE AND ANTICANCER PHARMACEUTICAL COMPOSITION CONTAINING SAME AS ACTIVE INGREDIENT” (KOREA RESEARCH INSTITUTE OF CHEMICAL TECHNOLOGY, priority 2021, published 2025)
